Where two headings read alike, the source gives them in different places.
Target: T1, human GluN1/GluN2B NMDA receptors (Homo sapiens, UniProt Q13224)
T1 construct: expressed in transfected cells
Assay: Cell-based calcium flux (FLIPR) assay on cloned human NR1/NR2B ion channels expressed in mammalian cells (standard and HTS buffer variants);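 also: stable Tet-On inducible cell line, Ca2+ influx triggered by glutamate at about EC40 plus 10 µM glycine, fluorescent dye read-out over 5 min, normalized to control wells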

[1] = standard assay buffer (0.5 mM MgCl2 in dye loading buffer; 137 mM NaCl, 4 mM KCl in assay buffer), human GluN1/GluN2B, read-out: NR2B IC50 (μM) standard assay
[2] = standard assay buffer (0.5 mM MgCl2 dye loading; 137 mM NaCl, 4 mM KCl assay buffer), human GluN1/GluN2B cells, read-out: NR2B IC50 (μM) standard assay
[3] = HTS assay buffer (1.5 mM MgCl2 in dye loading buffer; 150 mM NaCl, 3 mM KCl in assay buffer), human GluN1/GluN2B, read-out: NR2B IC50 (μM) HTS assay

T1 sequence (Q13224 27-1484, other chains not shown): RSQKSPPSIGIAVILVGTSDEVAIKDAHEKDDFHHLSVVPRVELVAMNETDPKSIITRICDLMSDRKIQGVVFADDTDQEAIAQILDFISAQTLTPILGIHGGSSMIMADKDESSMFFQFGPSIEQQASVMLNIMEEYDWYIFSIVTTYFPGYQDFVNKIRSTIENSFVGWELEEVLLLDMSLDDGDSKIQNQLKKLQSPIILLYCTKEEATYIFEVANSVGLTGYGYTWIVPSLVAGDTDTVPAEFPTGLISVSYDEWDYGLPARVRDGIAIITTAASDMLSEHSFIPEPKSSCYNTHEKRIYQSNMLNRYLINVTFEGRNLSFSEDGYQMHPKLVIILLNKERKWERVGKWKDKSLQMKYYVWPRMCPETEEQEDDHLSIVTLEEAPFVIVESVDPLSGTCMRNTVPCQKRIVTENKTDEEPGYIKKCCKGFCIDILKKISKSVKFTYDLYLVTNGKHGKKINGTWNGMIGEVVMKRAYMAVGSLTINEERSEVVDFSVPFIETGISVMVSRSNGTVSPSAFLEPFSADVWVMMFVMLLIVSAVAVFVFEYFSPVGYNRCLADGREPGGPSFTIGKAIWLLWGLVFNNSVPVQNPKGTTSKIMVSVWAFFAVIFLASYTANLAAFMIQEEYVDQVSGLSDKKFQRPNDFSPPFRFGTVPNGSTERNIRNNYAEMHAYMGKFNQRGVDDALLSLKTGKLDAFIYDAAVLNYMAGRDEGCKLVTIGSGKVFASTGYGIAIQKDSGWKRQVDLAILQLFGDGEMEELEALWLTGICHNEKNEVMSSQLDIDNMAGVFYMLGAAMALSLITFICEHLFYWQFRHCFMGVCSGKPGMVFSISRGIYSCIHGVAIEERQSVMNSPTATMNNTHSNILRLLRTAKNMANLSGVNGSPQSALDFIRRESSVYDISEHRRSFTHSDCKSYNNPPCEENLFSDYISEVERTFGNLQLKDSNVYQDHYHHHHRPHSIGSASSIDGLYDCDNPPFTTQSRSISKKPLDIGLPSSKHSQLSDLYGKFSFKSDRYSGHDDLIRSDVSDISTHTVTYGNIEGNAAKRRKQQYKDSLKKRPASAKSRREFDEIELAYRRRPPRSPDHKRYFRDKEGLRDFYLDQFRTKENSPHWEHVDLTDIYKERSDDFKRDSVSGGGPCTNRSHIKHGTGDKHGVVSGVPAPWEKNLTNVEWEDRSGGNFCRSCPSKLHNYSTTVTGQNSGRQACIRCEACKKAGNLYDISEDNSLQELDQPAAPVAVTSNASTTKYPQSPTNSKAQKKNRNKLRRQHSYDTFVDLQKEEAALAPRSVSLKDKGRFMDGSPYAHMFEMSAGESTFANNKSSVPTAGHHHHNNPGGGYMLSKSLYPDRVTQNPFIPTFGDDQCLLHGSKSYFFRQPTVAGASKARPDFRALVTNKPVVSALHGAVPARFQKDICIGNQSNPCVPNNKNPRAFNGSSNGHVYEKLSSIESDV

| SMILES | IC50 [1] [µM] | IC50 [2] [µM] | further results |
| --- | --- | --- | --- |
| Cn1cc(Cn2c(=O)n(C)c3ncc(-c4cccc(C(F)(F)F)c4)cc32)cn1 [Example 551, 3-Methyl-1-[(1-methylpyrazol-4-yl)methyl]-6-[3-(trifluoromethyl)phenyl]imidazo[4,5-b]pyridin-2-one] | 0.19 | – | – |
| Cn1c(=O)n(Cc2cccnn2)c2cc(-c3ccc(F)c(F)c3)cnc21 [Example 61, 6-(3,4-Difluorophenyl)-3-methyl-1-(pyridazin-3-ylmethyl)imidazo[4,5-b]pyridin-2-one] | – | 0.223 | – |
| COc1ccc(-c2cnc3[nH]c(=O)n(Cc4cc(C)on4)c3c2)cc1C [Example 515, 6-(4-Methoxy-3-methyl-phenyl)-1-[(5-methylisoxazol-3-yl)methyl]-3H-imidazo[4,5-b]pyridin-2-one] | – | – | IC50 [3]: 0.156 µM |
| Cc1cc(F)ccc1-c1cnc2[nH]c(=O)n(Cc3ccccc3C#N)c2c1 [Example 483, 2-[[6-(4-Fluoro-2-methyl-phenyl)-2-oxo-3H-imidazo[4,5-b]pyridin-1-yl]methyl]benzonitrile] | – | – | IC50 [3]: 1.8 µM |
| Cn1ccc(Cn2c(=O)[nH]c3ncc(-c4ccc(F)c(F)c4)cc32)n1 [Example 131, 6-(3,4-Difluorophenyl)-1-[(1-methylpyrazol-3-yl)methyl]-3H-imidazo[4,5-b]pyridin-2-one] | – | 3.56 | – |
| CNC(=O)Cn1c(=O)[nH]c2ncc(-c3ccc(F)cc3OC)cc21 [Example 440, 2-[6-(4-Fluoro-2-methoxy-phenyl)-2-oxo-3H-imidazo[4,5-b]pyridin-1-yl]-N-methyl-acetamide] | 0.358 | – | – |
| CN(C)C(=O)Cn1c(=O)n(C)c2ncc(-c3ccc(C(F)(F)F)s3)cc21 [Example 28, N,N-Dimethyl-2-[3-methyl-2-oxo-6-[5-(trifluoromethyl)-2-thienyl]imidazo[4,5-b]pyridin-1-yl]acetamide] | – | 0.034 | – |
| Cc1cncc(Cn2c(=O)[nH]c3ncc(-c4cccc(C(F)(F)F)c4)cc32)c1 [Example 242, 1-[(5-Methyl-3-pyridyl)methyl]-6-[3-(trifluoromethyl)phenyl]-3H-imidazo[4,5-b]pyridin-2-one] | – | 0.15 | – |
| O=C(Cn1c(=O)n(CF)c2ncc(-c3ccc(C(F)(F)F)s3)cc21)N1CC(F)C1 [Example 597, 1-[2-(3-Fluoroazetidin-1-yl)-2-oxo-ethyl]-3-(fluoromethyl)-6-[5-(trifluoromethyl)-2-thienyl]imidazo[4,5-b]pyridin-2-one] | 0.063 | – | – |
| O=c1[nH]c2ncc(-c3cccc(Cl)c3)cc2n1Cc1cccnc1 [Example 296, 6-(3-Chlorophenyl)-1-(3-pyridylmethyl)-3H-imidazo[4,5-b]pyridin-2-one] | – | 0.029 | – |
| Cn1c(=O)n(Cc2csnn2)c2cc(-c3cccc(C(F)(F)F)c3)cnc21 [Example 548, 3-Methyl-1-(thiadiazol-4-ylmethyl)-6-[3-(trifluoromethyl)phenyl]imidazo[4,5-b]pyridin-2-one] | 0.185 | – | – |
| Cc1ccc(C(F)(F)F)cc1-c1cnc2[nH]c(=O)n(CCN3CCC3)c2c1 [Example 172, 1-[2-(Azetidin-1-yl)ethyl]-6-[2-methyl-5-(trifluoromethyl)phenyl]-3H-imidazo[4,5-b]pyridin-2-one] | – | 0.326 | – |
| Cn1c(=O)n(Cc2cccnc2)c2cc(-c3cccc(C(F)(F)F)c3)cnc21 [Example 362, 3-Methyl-1-(3-pyridylmethyl)-6-[3-(trifluoromethyl)phenyl]imidazo[4,5-b]pyridin-2-one] | 0.105 | – | – |
| CCOc1ccc(F)cc1-c1cnc2[nH]c(=O)n(Cc3cc(C)on3)c2c1 [Example 521, 6-(2-Ethoxy-5-fluoro-phenyl)-1-[(5-methylisoxazol-3-yl)methyl]-3H-imidazo[4,5-b]pyridin-2-one] | 0.132 | – | – |
| Cc1c(F)ccc(-c2cnc3[nH]c(=O)n(Cc4cncc(F)c4)c3c2)c1F [Example 301, 6-(2,4-Difluoro-3-methyl-phenyl)-1-[(5-fluoro-3-pyridyl)methyl]-3H-imidazo[4,5-b]pyridin-2-one] | – | 0.045 | – |
| Cc1nccc(Cn2c(=O)[nH]c3ncc(-c4cccc(C(F)(F)F)c4)cc32)n1 [Example 254, 1-[(2-Methylpyrimidin-4-yl)methyl]-6-[3-(trifluoromethyl)phenyl]-3H-imidazo[4,5-b]pyridin-2-one] | – | 0.824 | – |
| O=c1[nH]c2ncc(-c3cccc(C(F)(F)F)c3)cc2n1Cc1ccncc1 [Example 229, 1-(4-Pyridylmethyl)-6-[3-(trifluoromethyl)phenyl]-3H-imidazo[4,5-b]pyridin-2-one] | – | 0.194 | – |
| Cn1c(=O)n(Cc2cncnc2)c2cc(-c3ccc(F)c(F)c3)cnc21 [Example 60, 6-(3,4-Difluorophenyl)-3-methyl-1-(pyrimidin-5-ylmethyl)imidazo[4,5-b]pyridin-2-one] | – | 0.45 | – |
| Cn1c(=O)n(CC(=O)N2CCC2)c2cc(-c3ccc(C(F)(F)F)s3)cnc21 [Example 27, 1-[2-(Azetidin-1-yl)-2-oxo-ethyl]-3-methyl-6-[5-(trifluoromethyl)-2-thienyl]imidazo[4,5-b]pyridin-2-one] | – | 0.031 | – |
| Cc1cccc(-c2cnc3c(c2)n(Cc2cccnc2)c(=O)n3C)c1 [Example 356, 3-Methyl-6-(m-tolyl)-1-(3-pyridylmethyl)imidazo[4,5-b]pyridin-2-one] | 0.07 | – | – |
| Cc1ncc(-c2cnc3c(c2)n(CC(=O)N(C)C)c(=O)n3C)s1 [Example 114, N,N-Dimethyl-2-[3-methyl-6-(2-methylthiazol-5-yl)-2-oxo-imidazo[4,5-b]pyridin-1-yl]acetamide] | – | 11.7 | – |
| COc1ccc(-c2cnc3[nH]c(=O)n(CC(=O)c4cccs4)c3c2)cc1F [Example 457, 6-(3-Fluoro-4-methoxy-phenyl)-1-[2-oxo-2-(2-thienyl)ethyl]-3H-imidazo[4,5-b]pyridin-2-one] | 0.33 | – | – |
| O=C(Cn1c(=O)[nH]c2ncc(-c3cccc(C(F)(F)F)c3)cc21)N1CCOCC1 [Example 204, 1-(2-Morpholino-2-oxo-ethyl)-6-[3-(trifluoromethyl)phenyl]-3H-imidazo[4,5-b]pyridin-2-one] | – | 0.037 | – |
| CCC(=O)Cn1c(=O)n(C)c2ncc(-c3cccc(C4CC4)c3)cc21 [Example 392, 6-(3-Cyclopropylphenyl)-3-methyl-1-(2-oxobutyl)imidazo[4,5-b]pyridin-2-one] | 0.324 | – | – |
| Cc1noc(Cn2c(=O)[nH]c3ncc(-c4ccc(F)c(F)c4)cc32)n1 [Example 143, 6-(3,4-Difluorophenyl)-1-[(3-methyl-1,2,4-oxadiazol-5-yl)methyl]-3H-imidazo[4,5-b]pyridin-2-one] | – | 0.075 | – |
| Cc1noc(C)c1Cn1c(=O)[nH]c2ncc(-c3cccc(C#N)c3)cc21 [Example 513, 3-[1-[(3,5-Dimethylisoxazol-4-yl)methyl]-2-oxo-3H-imidazo[4,5-b]pyridin-6-yl]benzonitrile] | – | – | IC50 [3]: > 29 µM |
| Cc1c(F)ccc(-c2cnc3[nH]c(=O)n(CCN4CCC4)c3c2)c1C [Example 171, 1-[2-(Azetidin-1-yl)ethyl]-6-(4-fluoro-2,3-dimethyl-phenyl)-3H-imidazo[4,5-b]pyridin-2-one] | – | 0.21 | – |
| Cc1ccncc1Cn1c(=O)[nH]c2ncc(-c3cccc(F)c3)cc21 [Example 276, 6-(3-Fluorophenyl)-1-[(4-methyl-3-pyridyl)methyl]-3H-imidazo[4,5-b]pyridin-2-one] | – | 0.034 | – |

Reference: patent US11759455B2, “Substituted 1H-imidazo[4,5-b]pyridin-2(3H)-ones and their use as GLUN2B receptor modulators” (JANSSEN PHARMACEUTICA NV, priority 2016, dated 2023)
